Where a name gives a salt, the structure may show the parent alone.
What was measured:
[1] = tested on: phosphodiesterase isolated from rat brain; assay: Inhibition of phosphodiesterase isolated from rat brain (radioisotopic, 3H-c-AMP); format: biochemical; settings: for effect of the test compound on enzyme activity: 20 minutes incubation; for IC50: rat brain, read off from curve, 50% decrease of enzyme activity, read-out: I50 on phosphodiesterase
Description: (§1) The model experiments were performed by means of phosphodiesterase isolated from animal tissues (rat brain, cattle brain, cattle heart). The enzyme was isolated by the technique of J. Schro/ der and H. V. Richenberg [Biochem. Biophys. Acta 302, 50 (1973)] whereupon the phosphodiesterase isolated was purified according to the method of J. G. Hardman and E. W. Sutherland [J. Biol. Chem. 240, 3704 (1965)] and the activity of the purified enzyme was measured by a radioisotopic method developed by G. Po/ ch, in the presence of an excess amount of c-AMP tricium-labeled (10.1 mmoles of a c-AMP substrate containing 2.59K Bq of 3H-c-AMP), in an incubator. The measurement was first carried out without the inhibitory substance and then in the presence of 17,18-dehydro-apivincaminol-3',4',5'-trimethoxy-benzoate as an inhibitor agent, after an incubation time of 20 minutes [N.S. Arch. Pharmacol. 268, 272 (1971)]. From the test compound a 1 mmole stock solution was prepared with aqueous hydrochloric acid solution and different amounts of the stock solution were added to the enzyme preparates corresponding to 5×10^-6, 1×10^-5 and 5×10^-5 mole/lit. of the test compound. A solution of papaverine used as reference compound is added to the enzyme preparate in an analogous manner.
The activity of the solutions containing 17,18-dehydro-apovincaminol-3',4',5'-trimethoxy-benzoate and papaverine was expressed in percents of the control (enzyme solution without any inhibitory substance, 100%). The results obtained on an enzyme isolated from rat brain are as follows:
(§2) The tests on an enzyme isolated from cattle brain and cattle heart, resp. were carried out in an analogous way.

[2] = tested on: phosphodiesterase isolated from cattle heart; assay: Inhibition of phosphodiesterase isolated from cattle heart (radioisotopic, 3H-c-AMP); format: biochemical; settings: for IC50: cattle heart, read off from curve, 50% decrease of enzyme activity, read-out: I50 on phosphodiesterase
Description: as §1, §2

[3] = tested on: phosphodiesterase isolated from cattle brain; assay: Inhibition of phosphodiesterase isolated from cattle brain (radioisotopic, 3H-c-AMP); format: biochemical; settings: for IC50: cattle brain, read off from curve, 50% decrease of enzyme activity, read-out: I50 on phosphodiesterase
Description: as §1, §2

psoriasis [4] = assay: Clinical test of topical creams on patients suffering from psoriasis (plaque method); format: in vivo, patients (human); settings: cream with 2% active ingredient, scale 0-3
Description: The first clinical tests were carried out with preparations for topical use, e.g. ointments, creams, solutions, tinctures, pastes, aerosols, etc. containing the new compound according to the invention as an active ingredient. More particularly, creams containing 2%, 1%, 0.5%, 0.25% and […], resp. of 17,18-dehydro-apovincaminol-3',4',5'-trimethoxy-benzoate were employed.
Clinical tests were performed on patients suffering from psoriasis. During the tests the patients have not received any systemic, e.g. immunosuppressive, cytostatic or glucocorticoid treatment for their basic disease.
Groups of 5 were examined by the so-called plaque method. One side of symmetrical skin lesions was treated by a creme containing the active ingredient in the desired concentration, while on the other side a placebo was applied. The remaining psoriatic sites on the skin were subjected to other topical treatments for example with ointments containing flumethasone pivalate and salicylic acid, as active ingredient, which are widely used for the treatment of psoriasis.
The tests were started with creams having a higher active ingredient concentration and then further patients were treated with preparations containing the smallest effective active ingredient concentration.
The efficiency was evaluated upon observing three symptoms: inflammation, infiltration and desquamation (peeling). The intensity of the symptoms was qualified by scores between 0 and 3. The total number of scores served as a measure of the reduction of symptoms. The results were evaluated by methods of mathematical statistics. During the treatment undesirable side effects have never been observed.
Evaluations were made before the treatment (I), after a one-week treatment (II) and after a two-week treatment (III). The results set forth in the following table are the average number of scores (total number of scores/number of patient) for creams containing 2% of active ingredient.

psoriasis [5] = settings: phosphodiesterase inhibitor; Voorhees et al., Arch. Derm. 104, 359 (1971); cited from earlier work
[6] = rat brain enzyme, 1 × 10^-5 mole/lit.
[7] = rat brain enzyme, 5 × 10^-5 mole/lit.
[8] = rat brain enzyme, 5 × 10^-6 mole/lit.

SMILES: CC[C@]12C=CCN3CCc4c(n(c5ccccc45)C(COC(=O)c4cc(OC)c(OC)c(OC)c4)=C1)[C@@H]32 [17,18-Dehydro-apovincaminol-3',4',5'-trimethoxy-benzoate]
- times more effective than papaverine ([1]; rat brain enzyme, versus papaverine): 7 times
- times more effective than papaverine ([2]; cattle heart enzyme, versus papaverine): 18 times
- times more effective than papaverine ([3]; cattle brain enzyme, versus papaverine): 6 times
- Average number of scores, Desquamation (psoriasis [4]; I: before the treatment): 2.0 scores
- Average number of scores, Infiltration (psoriasis [4]; I: before the treatment): 2.6 scores
- Average number of scores, Inflammation (psoriasis [4]; I: before the treatment): 2.8 scores
- Average number of scores, Desquamation (psoriasis [4]; II: after one-week treatment): 0.8 scores
- Average number of scores, Infiltration (psoriasis [4]; II: after one-week treatment): 1.6 scores
- Average number of scores, Inflammation (psoriasis [4]; II: after one-week treatment): 2.2 scores
- Average number of scores, Desquamation (psoriasis [4]; III: after two-week treatment): 0.2 scores
- Average number of scores, Infiltration (psoriasis [4]; III: after two-week treatment): 0.6 scores
- Average number of scores, Inflammation (psoriasis [4]; III: after two-week treatment): 1.6 scores

SMILES: CC[C@]12C=CCN3CCc4c(n(c5ccccc45)C(COC(=O)c4cc(OC)c(OC)c(OC)c4)=C1)[C@@H]32 [17,18-dehydro-apovincaminol-3',4',5'-trimethoxy-benzoate.HCl]
- effect of the test compound on enzyme activity [1, 6]: 40.7 % of the control
- effect of the test compound on enzyme activity [1, 7]: 38.6 % of the control
- effect of the test compound on enzyme activity [1, 8]: 84.7 % of the control
- IC50 [1]: 10 µM
- IC50 [2]: 3 µM
- IC50 [3]: 15 µM

SMILES: COc1ccc(Cc2nccc3cc(OC)c(OC)cc23)cc1OC [papaverine.HCl, papaverine, reference compound]
- effect of the test compound on enzyme activity [1, 6]: 89.7 % of the control
- effect of the test compound on enzyme activity [1, 7]: 60.5 % of the control
- effect of the test compound on enzyme activity [1, 8]: 91.2 % of the control
- IC50 [1]: 70 µM
- IC50 [2]: 50 µM
- IC50 [3]: 90 µM

SMILES: COc1ccc(Cc2nccc3cc(OC)c(OC)cc23)cc1OC [papaverine]
- effect on psoriasis (psoriasis [5]): successfully influenced psoriasis
